{"source": "patent US10194693B2", "about": "“Aerosol generating device” (FONTEM HOLDINGS 1 B.V., priority 2013, dated 2019)", "origin": "cited, not measured here", "data": [{"smiles": "CN1CCCC1c1cccnc1", "note": "(centres unmarked) [nicotine]", "values": [{"measurement": "time to peak increments of plasma nicotine concentration", "setting": "smoking a cigarette", "value": "≤ 10", "unit": "min"}, {"measurement": "peak increments of plasma nicotine concentration", "setting": "smoking a single cigarette", "value": "5 to 30", "unit": "ng/mL"}]}]}
